# Source: patent US10369185B2, “Methods and compositions for enhancement of ability to concentrate” (KYOWA HAKKO BIO CO., LTD., priority 2014, dated 2019)
# Entries after “also recorded” stand apart in the source; their conditions may differ. Peptide text beside a SMILES is read from it.
# Key:
# Assay type in all cases: in vivo, human
# [1] = tested on: male runners; test: Dynavision D2 MODE A reaction test (hits and time per hit in 60 s); parameters: Mode A Avg Δ (average time per hit), group mean: unit not given here; details: for Mode A Avg Δ (average time per hit), group mean / Mode A Hits Δ, group mean: Post-Pre
# Procedure: The testing protocol is depicted in FIG. 1. Data collection occurred on four separate occasions. Each session required participants to perform a 60-min run at 75% of their previously measured VO2max. Following this run, all participants performed a run at 90% of their VO2max until volitional exhaustion. All participants performed their first trial (DHY) without any rehydration. During this session the total weight lost during the trial was determined. The fluid loss that occurred during this session was then used to determine the participant's swear rate (L·hr^−1). To continue in the study, participant's sweat rate was or exceeded 1.3 L·hr^−1. During the next three trails participants were provided 250 ml of fluid every 15 minutes in equal amounts. During one of the trials participants consumed only a flavored sports drink (ELECT only), while during the other trials participants consumed the alanine-glutamine supplement (Sustamine™) mixed in the same flavored sports drink at either a low (LD: 300 mg per 500 ml) or high (HD: 1 g per 500 ml) dose. Measurement of upper body reaction time was performed on the Dynavision D2 Visuomotor Training Device (D2; Dynavision International LLC, West Chester, Ohio). The D2 is a light training reaction device, developed to train sensory motor integration through the visual system. It consists of a board (4 foot×4 foot) that can be raised or lowered relative to the height of the operator. It contains 64 target buttons arranged into five concentric circles surrounding a center screen that can be illuminated to serve as a stimulus for the participant. Participants were required to assume a comfortable athletic stance and stand at a distance from the board where they could easily reach all of the lights. The board height was adjusted so the LCD screen was located just below eye level. A total of three different reaction tests were conducted. Participants were instructed to fixate their gaze on the LCD screen in the middle of the board and to keep their focus there for the entirety of the experiment. The second assessment (MODE A) measured the participant's ability to react to a stimulus as it changed positions on the board. An initial stimulus will present on the D2 in a 6 random location. The stimulus remained lit until it was struck by the participant. The stimulus then appeared at another random location. The participant was instructed to identify and strike as many stimuli as possible within 60 s. The number of hits and the average time per hits were recorded for each participant. Additionally, to make inferences on true effects of the different trials on reaction performance, an analysis based on the magnitude of differences, calculated from 90% confidence intervals, as previously described by Batterham and Hopkins (2005), was used in this study. Differences in Post-Pre performance (Δresponse) between trials were analyzed via a published spreadsheet (Hopkins 2007), with the smallest non-trivial change set at 20% of the grand standard deviation (Batterham and Hopkins 2005). All data are expressed as a mean effect±SD, with percent chances of a beneficial, trivial or negative outcome. Qualitative inferences, based on quantitative chances were assessed as: <1% almost certainly not, 1-5% very unlikely, 5-25% unlikely, 25-75% possibly, 75-95% likely, 95-99% very likely and >99% almost certainly (Hopkins 2002).
# [2] = tested on: male runners; test: Serial subtraction test (modified Serial Sevens Test); details: between trials
# Procedure: (§1) The testing protocol is depicted in FIG. 1. Data collection occurred on four separate occasions. Each session required participants to perform a 60-min run at 75% of their previously measured VO2max. Following this run, all participants performed a run at 90% of their VO2max until volitional exhaustion. All participants performed their first trial (DHY) without any rehydration. During this session the total weight lost during the trial was determined. The fluid loss that occurred during this session was then used to determine the participant's swear rate (L·hr^−1). To continue in the study, participant's sweat rate was or exceeded 1.3 L·hr^−1. During the next three trails participants were provided 250 ml of fluid every 15 minutes in equal amounts. During one of the trials participants consumed only a flavored sports drink (ELECT only), while during the other trials participants consumed the alanine-glutamine supplement (Sustamine™) mixed in the same flavored sports drink at either a low (LD: 300 mg per 500 ml) or high (HD: 1 g per 500 ml) dose.
# A modified version of the original Serial Sevens Test was utilized to analyze cognitive function. […] The number of correct answers and the average time per correct answer was recorded.
# [3] = tested on: male runners; test: Run at 90% VO2max until volitional exhaustion; details: LD and HD compared to DHY
# Procedure: as §1
compound,measurement,setting,value
C[C@H](N)C(=O)N[C@@H](CCC(N)=O)C(=O)O [L-Alanyl-L-Glutamine] (H-Ala-Gln-OH),"Mode A Avg Δ, Interpretation",[1]; Dehydration vs High Dose,Possibly
same,"Mode A Avg Δ, Mean Difference",[1]; Dehydration vs High Dose,0.025
same,"Mode A Avg Δ, Percent Negative",[1]; Dehydration vs High Dose,2.83%
same,"Mode A Avg Δ, Percent Positive",[1]; Dehydration vs High Dose,69.46%
same,"Mode A Avg Δ, Percent Trivial",[1]; Dehydration vs High Dose,27.71%
same,"Mode A Hits Δ, Interpretation",[1]; Dehydration vs High Dose,possible negative effect; also recorded: Possibly
same,"Mode A Hits Δ, Mean Difference",[1]; Dehydration vs High Dose,−2.9
same,"Mode A Hits Δ, Percent Negative",[1]; Dehydration vs High Dose,70.21%
same,"Mode A Hits Δ, Percent Positive",[1]; Dehydration vs High Dose,2.09%
same,"Mode A Hits Δ, Percent Trivial",[1]; Dehydration vs High Dose,27.70%
same,"Mode A Avg Δ, Interpretation",[1]; Dehydration vs Low Dose,Possibly
same,"Mode A Avg Δ, Mean Difference",[1]; Dehydration vs Low Dose,0.02
same,"Mode A Avg Δ, Percent Negative",[1]; Dehydration vs Low Dose,2.61%
same,"Mode A Avg Δ, Percent Positive",[1]; Dehydration vs Low Dose,61.93%
same,"Mode A Avg Δ, Percent Trivial",[1]; Dehydration vs Low Dose,35.45%
same,"Mode A Hits Δ, Interpretation",[1]; Dehydration vs Low Dose,possible negative effect; also recorded: Possibly
same,"Mode A Hits Δ, Mean Difference",[1]; Dehydration vs Low Dose,−2.2
same,"Mode A Hits Δ, Percent Negative",[1]; Dehydration vs Low Dose,57.68%
same,"Mode A Hits Δ, Percent Positive",[1]; Dehydration vs Low Dose,3.88%
same,"Mode A Hits Δ, Percent Trivial",[1]; Dehydration vs Low Dose,38.43%
same,"Mode A Avg Δ, Interpretation",[1]; Gatorade vs High Dose,Possibly
same,"Mode A Avg Δ, Mean Difference",[1]; Gatorade vs High Dose,0.023
same,"Mode A Avg Δ, Percent Negative",[1]; Gatorade vs High Dose,2.17%
same,"Mode A Avg Δ, Percent Positive",[1]; Gatorade vs High Dose,67.69%
same,"Mode A Avg Δ, Percent Trivial",[1]; Gatorade vs High Dose,30.14%
same,"Mode A Hits Δ, Interpretation",[1]; Gatorade vs High Dose,possibly negative
same,"Mode A Hits Δ, Mean Difference",[1]; Gatorade vs High Dose,2.7
same,"Mode A Hits Δ, Percent Negative",[1]; Gatorade vs High Dose,65.88%
same,"Mode A Hits Δ, Percent Positive",[1]; Gatorade vs High Dose,2.87%
same,"Mode A Hits Δ, Percent Trivial",[1]; Gatorade vs High Dose,31.25%
same,"speed per hit, MODE A",[1]; HD and LD compared to DHY and ELECT only,not statistically different
same,"improvements of successful hits, MODE A","[1]; HD and LD compared to DHY and ELECT only, not statistically significant",3-4 fold
same,"Mode A Avg Δ (average time per hit), group mean",[1]; High Dose (1 g per 500 ml),−0.028
same,"Mode A Hits Δ, group mean",[1]; High Dose (1 g per 500 ml),3.67
same,"Mode A Avg Δ (average time per hit), group mean",[1]; Low Dose (300 mg per 500 ml),−0.023
same,"Mode A Hits Δ, group mean",[1]; Low Dose (300 mg per 500 ml),2.92
same,"Mode A Avg Δ, Interpretation",[1]; Low Dose vs Gatorade,Unclear
same,"Mode A Avg Δ, Mean Difference",[1]; Low Dose vs Gatorade,−0.018
same,"Mode A Avg Δ, Percent Negative",[1]; Low Dose vs Gatorade,50.55%
same,"Mode A Avg Δ, Percent Positive",[1]; Low Dose vs Gatorade,44.41%
same,"Mode A Avg Δ, Percent Trivial",[1]; Low Dose vs Gatorade,5.04%
same,"Mode A Hits Δ, Interpretation",[1]; Low Dose vs Gatorade,Unclear
same,"Mode A Hits Δ, Mean Difference",[1]; Low Dose vs Gatorade,1.9
same,"Mode A Hits Δ, Percent Negative",[1]; Low Dose vs Gatorade,42.26%
same,"Mode A Hits Δ, Percent Positive",[1]; Low Dose vs Gatorade,50.35%
same,"Mode A Hits Δ, Percent Trivial",[1]; Low Dose vs Gatorade,7.39%
same,"Mode A Avg Δ, Interpretation",[1]; Low Dose vs High Dose,Very Likely
same,"Mode A Avg Δ, Mean Difference",[1]; Low Dose vs High Dose,0.005
same,"Mode A Avg Δ, Percent Negative",[1]; Low Dose vs High Dose,0.02%
same,"Mode A Avg Δ, Percent Positive",[1]; Low Dose vs High Dose,2.51%
same,"Mode A Avg Δ, Percent Trivial",[1]; Low Dose vs High Dose,97.47%
same,"Mode A Hits Δ, Interpretation",[1]; Low Dose vs High Dose,Likely
same,"Mode A Hits Δ, Mean Difference",[1]; Low Dose vs High Dose,−0.75
same,"Mode A Hits Δ, Percent Negative",[1]; Low Dose vs High Dose,9.11%
same,"Mode A Hits Δ, Percent Positive",[1]; Low Dose vs High Dose,0.11%
same,"Mode A Hits Δ, Percent Trivial",[1]; Low Dose vs High Dose,90.77%
same,serial subtraction tests and time per successful answer,[2],No significant differences
same,run times at 90% VO2max (time to exhaustion),[3],significantly longer at LD and HD compared to DHY; also recorded: improved time to exhaustion compared to when subjects were dehydrated; also recorded: can enhance time to exhaustion
